Experimental data reported in US5606038A, “Amphiphilic polyene macrolide antibiotic compounds” (Competitive Technologies, Inc., priority 1995, dated 1997).
In brackets after ≈: the same amount, converted by molar mass. Where two headings read alike, the source gives them in different places.

Tests used:
[1] = critical micelle concentration in PBS by molar absorptivity at 409 nm; assay type: physicochemical; conditions: PBS (pH 7.4), 37° C.
From the text: In its monomeric state, Amphotericin B has a characteristic absorption band at 409 nm; upon aggregation, however, its apparent molar absorptivity decreases in magnitude [see Biochemistry 30:5707 (1991)]. Thus, by measuring its molar absorptivity as a function of the reciprocal of the macrolide concentration, one can estimate the critical micelle concentration. This can be shown mathematically by allowing T, m and P to represent the total, monomeric, and micellar concentrations (i.e. the concentration of the drug that is present in micellar form) of the macrolide, respectively, and if ε represents the apparent molar absorptivity and εm and εp are the molar absorptivity for the monomeric and micellar components, respectively, then it can be shown that ε=εp +(εm -εp)m/T. At concentrations in excess of the critical micelle concentration, m is a constant and ε is inversely proportional to T.
Using the method described previously, the critical micelle concentrations for Amphotericin B and the conjugates described in the preceding examples were determined and are reported in Table I describing the aggregation, antifungal and hemolytic properties of […] macrolide antibiotics (in μM amounts) according to the present invention.
^a critical micelle concentration was determined in PBS (pH 7.4) at […]

Candida albicans [2] = assay: K+ release from fungal cells; assay type: cell-based; conditions: 3×10^7 fungal cells/ml, read-out: concentration for releasing 50% of the K+ from fungal cells
solubility in water = assay type: physicochemical
Candida albicans [3] = assay: minimum inhibitory concentration, Candida albicans, broth microdilution; assay type: cell-based; conditions: 24 h, 37° C.
Method: ^c minimum inhibitory concentration (see Example IV); three different
strains of Candida albicans were tested; all tests were done in broth
microdilution in yeast nitrogen baseglucose at 37° C. for 24 hours
the initial inoculum was 1 × 10^4 blastospores per ml
The minimum inhibitory concentration reported in Table I was obtained, and further confirmed as reported in Table II, by the methods described in the following Example IV.
(§1) Microorganism inocula was harvested from one to five day old cultures grown on Sabourand's dextrose agar. After two washes with sterile saline, the inocula were counted utilizing a hemacytometer and diluted or concentrated as required to 1×10^4 blastospores per ml. Sterile molten agar (at 50° C.) was inoculated, allowed to cool, and 10 mm diameter discs impregnated (from […] stock solutions) with each of the test compounds was placed on the surface of the agar. Zones of inhibition were measured after incubating the plates at 30° C. for 24-48 hours.
(§2) The compounds were then screened against three strains of three species of microorganisms: Candida albicans, Cryptococcus neoformans, and Aspergillus fumigatus using a conventional double dilution technique. All tests reported in Table II were done by broth microdilution in yeast nitrogen base-glucose using an inoculum of 1×10^4 blastospores per ml; the cultures were incubated at 37° C. for 24 hours, and the minimum concentration (in μg/ml) that prevents visible growth was recorded as the minimum inhibitory concentration.

Aspergillus fumigatus = assay: minimum inhibitory concentration, Aspergillus fumigatus, broth microdilution; assay type: cell-based; conditions: 24 h, 37° C.
Method: as §1, §2

in vitro = conditions: human, red blood cells
Cryptococcus neoformans = assay: minimum inhibitory concentration, Cryptococcus neoformans, broth microdilution; assay type: cell-based; conditions: 24 h
Method: as §1, §2

[4] = tested on: Histoplasma capsulatum, Cryptococcus neoformans, and several species of Candida, including C. glabrata and C. albicans; conditions: cited from earlier work
[5] = in solution; literature; cited from earlier work
human red blood cells = assay: hemolysis, 50% release of hemoglobin from human red blood cells; conditions: hemoglobin release from human red blood cells
[6] = tested on: Candida albicans (isolate NIH A); assay: survival of mice infected with Candida albicans (Example V); assay type: in vivo, Candida albicans in ICR mice; conditions: i.p. once per day for ten days, Example II 30 mg/kg, Amphotericin B 1 mg/kg
From the text: Ten immunocompetent ICR mice weighing 30 g each in three groups were inoculated intravenously with 3.2×10^6 colony forming units of Candida albicans (isolate NIH A) per mouse.

fungal organisms = conditions: compared with Amphotericin B; cited from earlier work
mammalian cells = conditions: compared with Amphotericin B; cited from earlier work
[7] = C. albicans (1), read-out: minimum inhibitory concentration
[8] = C. albicans (2), read-out: minimum inhibitory concentration
[9] = C. albicans (3), read-out: minimum inhibitory concentration
[10] = three strains of Candida albicans, yeast nitrogen base-glucose, 1 × 10^4 blastospores per ml, read-out: MIC (minimum inhibitory concentration)
[11] = C. neoformans (1), 37° C., read-out: minimum inhibitory concentration
[12] = C. neoformans (2), 37° C., read-out: minimum inhibitory concentration
[13] = read-out: minimum inhibitory concentration, C. neofornams (3), 37° C.

Compound | cmc (critical micelle concentration) [1] [µM] | EC50 (Candida albicans [2]) [nM] | MIC (Candida albicans [3]; [7]) [µg/mL] | MIC (Candida albicans [3]; [8]) [µg/mL] | MIC (Candida albicans [3]; [9]) [µg/mL] | MIC (Candida albicans [3]; [10]) [µM] | MIC (Aspergillus fumigatus; A. fumigatus (1)) [µg/mL] | MIC (Aspergillus fumigatus; A. fumigatus (2)) [µg/mL] | MIC (Aspergillus fumigatus; A. fumigatus (3)) [µg/mL] | HC50 at 1 h (in vitro) [µM] | MIC (Cryptococcus neoformans; [11]) [µg/mL] | MIC (Cryptococcus neoformans; [12]) [µg/mL] | MIC (Cryptococcus neoformans; [13]) [µg/mL] | also measured
COCCNC(=O)[C@H]1[C@@H]2C[C@@H](O[C@@H]3O[C@H](C)[C@@H](O)[C@H](N)[C@@H]3O)/C=C/C=C/C=C/C=C/C=C/C=C/C=C/[C@H](C)[C@@H](O)[C@@H](C)[C@H](C)OC(=O)C[C@H](O)C[C@H](O)CC[C@@H](O)[C@H](O)C[C@H](O)C[C@](O)(C[C@@H]1O)O2 [Example I] | 4.4 | 800 | 1.6 | 1.6 | 1.6 | 1.6 | 3.2 (≈ 3.26 µM) | 3.2 (≈ 3.26 µM) | 1.6 (≈ 1.63 µM) | 7.9 | 1.6 (≈ 1.63 µM) | 3.2 (≈ 3.26 µM) | 0.8 (≈ 0.815 µM) | solubility (solubility in water): < 10 µg/mL
C[C@@H]1[C@H](O)[C@@H](C)/C=C/C=C/C=C/C=C/C=C/C=C/C=C/[C@H](O[C@@H]2O[C@H](C)[C@@H](O)[C@H](N)[C@@H]2O)C[C@@H]2O[C@](O)(C[C@@H](O)C[C@@H](O)[C@H](O)CC[C@@H](O)C[C@@H](O)CC(=O)O[C@H]1C)C[C@H](O)[C@H]2C(=O)O [Amphotericin B, reference compound] | 1.1 | 100 | 1.6 | 1.6 | 1.6 | 1.7 | 0.8 (≈ 0.866 µM) | 1.6 (≈ 1.73 µM) | 0.8 (≈ 0.866 µM) | 1.8 | 0.8 (≈ 0.866 µM) | 0.8 (≈ 0.866 µM) | 0.8 (≈ 0.866 µM) | solubility in water (solubility in water; similar to Example I product (<10 μg/ml)): low solubility; sensitivity to Amphotericin B in vitro [4]: 0.03 to 1.0 µg/mL; critical micelle concentration [5]: very low critical micelle concentration; concentration needed for hemolysis relative to critical micelle concentration (human red blood cells): must be greater than their critical micelle concentration; percent survival ([6]; day 2 post-infection): 100%; percent survival ([6]; day 3 post-infection): 100%; percent survival ([6]; day 4 post-infection): 100%; percent survival ([6]; day 5 post-infection): 100%; percent survival ([6]; day 6 post-infection): 100%; percent survival ([6]; day 7 post-infection): 90%; percent survival ([6]; day 30 post-infection): 90%
C[C@@H]1[C@H](O)[C@@H](C)/C=C/C=C/CC/C=C/C=C/C=C/C=C/C(O[C@H]2O[C@H](C)[C@@H](O)[C@H](N)[C@@H]2O)CC2O[C@](O)(CC(O)C(O)CCC(O)CC(O)CC(O)CC(=O)O[C@H]1C)CC(O)C2C(=O)O (stereo partly shown) [Nystatin] |  |  |  |  |  |  |  |  |  |  |  |  |  | potency against fungal organisms (fungal organisms): somewhat lower in potency against fungal organisms as compared with Amphotericin B; toxicity toward mammalian cells (mammalian cells): may be far less toxic toward mammalian cells
